From patent publication US20240239752A1, “BICYCLIC HETEROAROMATIC INHIBITORS OF KLK5” (BioCryst Pharmaceuticals, Inc., priority 2021, published 2024)

Target: T1, recombinant human KLK5 (Homo sapiens, UniProt Q9Y337)
T1 construct: purchased Novoprotein or R&D Systems C415 or 1108-SE
T1 sequence (Q9Y337 23-293): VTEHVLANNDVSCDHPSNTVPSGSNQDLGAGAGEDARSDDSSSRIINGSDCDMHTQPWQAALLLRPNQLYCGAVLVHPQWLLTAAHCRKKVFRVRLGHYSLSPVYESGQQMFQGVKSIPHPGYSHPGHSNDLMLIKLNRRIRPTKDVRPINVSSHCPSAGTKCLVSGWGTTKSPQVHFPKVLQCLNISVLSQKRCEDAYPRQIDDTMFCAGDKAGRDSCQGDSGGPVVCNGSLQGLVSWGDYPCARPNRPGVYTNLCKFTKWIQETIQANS
Assay: Kallikrein (KLK) 5 enzymatic assay (Boc-VPR-AMC fluorogenic substrate)
Type: biochemical
Settings: recombinant human KLK5 0.1 μg/well, Boc-VPR-AMC 100 μM, pH 7.5, room temperature, 1% DMSO; tested a minimum of three times
Summary of the method: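 Fluorogenic rate assay at pH 7.5 (0.1 M NaH2PO4, 1% DMSO, room temperature), run at least three times per compound. Compound was premixed with 0.1 μg/well recombinant human KLK5 before adding 100 μM Boc-VPR-AMC; AMC release was read at ex 380/em 460 nm, and IC50 derived from inhibition of rate vs DMSO control.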

Row | SMILES | IC50 [µM]
1 | COc1cc(C(=N)N)cc(-c2ccc3c(c2)c(COc2ccccc2CC(=O)O)nn3C(C)C)c1 [Compound 82e, 2-(2-((5-(3-carbamimidoyl-5-methoxyphenyl)-1-isopropyl-1H-indazol-3-yl)methoxy)phenyl)acetic acid] | > 10
2 | COc1ccc(C(=N)N)cc1-c1ccc2c(c1)c(COc1ccccc1CC(=O)O)nn2C(C)C [Compound 83e, 2-(2-((5-(5-carbamimidoyl-2-methoxyphenyl)-1-isopropyl-1H-indazol-3-yl)methoxy)phenyl)acetic acid] | 1 to 10
3 | COc1c(C(=N)N)cccc1-c1ccc2c(c1)c(COc1ccccc1CC(=O)O)nn2C(C)C [Compound 84f, 2-(2-((5-(3-carbamimidoyl-2-methoxyphenyl)-1-isopropyl-1H-indazol-3-yl)methoxy)phenyl)acetic acid] | < 1
4 | CC(C)n1nc(COc2ccccc2CC(=O)O)c2cc(-c3cccc(-c4cn[nH]c4)c3)ccc21 [Compound 85c, 2-(2-((5-(3-(1H-pyrazol-4-yl)phenyl)-1-isopropyl-1H-indazol-3-yl)methoxy)phenyl)acetic acid] | > 10
5 | CC(C)(C)OC(=O)N1CCC(n2nc(COc3ccccc3CC(=O)O)c3cc(-c4cccc5c(N)nccc45)ccc32)C1 (centres unmarked) [Compound 86h, 2-(2-((5-(1-aminoisoquinolin-5-yl)-1-(1-(tert-butoxycarbonyl)pyrrolidin-3-yl)-1H-indazol-3-yl)methoxy)phenyl)acetic acid] | < 1
6 | CC(C)(C)OC(=O)N1CCC(n2nc(COc3ccccc3CC(=O)O)c3cc(-c4ccc5ccnc(N)c5c4)ccc32)C1 (centres unmarked) [Compound 87c, 2-(2-((5-(1-aminoisoquinolin-7-yl)-1-(1-(tert-butoxycarbonyl)pyrrolidin-3-yl)-1H-indazol-3-yl)methoxy)phenyl)acetic acid] | < 1
7 | Nc1nccc2c(-c3ccc4c(c3)c(COc3ccccc3CC(=O)O)nn4CC3CCOC3)cccc12 (centres unmarked) [Compound 88h, 2-(2-((5-(1-aminoisoquinolin-5-yl)-1-((tetrahydrofuran-3-yl)methyl)-1H-indazol-3-yl)methoxy)phenyl)acetic acid] | < 1
8 | Nc1nccc2ccc(-c3ccc4c(c3)c(COc3ccccc3CC(=O)O)nn4CC3CCOC3)cc12 (centres unmarked) [Compound 89b, 2-(2-((5-(1-aminoisoquinolin-7-yl)-1-((tetrahydrofuran-3-yl)methyl)-1H-indazol-3-yl)methoxy)phenyl)acetic acid] | < 1
9 | Nc1nccc2c(-c3ccc4c(c3)c(COc3ccccc3CC(=O)O)nn4C3CCNC3)cccc12 (centres unmarked) [Compound 90a, 2-(2-((5-(1-aminoisoquinolin-5-yl)-1-(pyrrolidin-3-yl)-1H-indazol-3-yl)methoxy)phenyl)acetic acid] | < 1
10 | Nc1nccc2ccc(-c3ccc4c(c3)c(COc3ccccc3CC(=O)O)nn4C3CCNC3)cc12 (centres unmarked) [Compound 91a, 2-(2-((5-(1-aminoisoquinolin-7-yl)-1-(pyrrolidin-3-yl)-1H-indazol-3-yl)methoxy)phenyl)acetic acid] | < 1
11 | Nc1nccc2c(-c3ccc4c(c3)c(COc3ccccc3CC(=O)O)nn4C3CCCCO3)cccc12 (centres unmarked) [Compound 92b, 2-(2-((5-(1-aminoisoquinolin-5-yl)-1-(tetrahydro-2H-pyran-2-yl)-1H-indazol-3-yl)methoxy)phenyl)acetic acid] | < 1
12 | Nc1nccc2ccc(-c3ccc4c(c3)c(COc3ccccc3CC(=O)O)nn4C3CCCCO3)cc12 (centres unmarked) [Compound 93b, 2-(2-((5-(1-aminoisoquinolin-7-yl)-1-(tetrahydro-2H-pyran-2-yl)-1H-indazol-3-yl)methoxy)phenyl)acetic acid] | < 1
13 | Cc1cccc(OCc2nn(CC3CCOC3)c3ccc(-c4cccc5c(N)nccc45)cc23)c1CC(=O)O (centres unmarked) [Compound 94e, 2-(2-((5-(1-aminoisoquinolin-5-yl)-1-((tetrahydrofuran-3-yl)methyl)-1H-indazol-3-yl)methoxy)-6-methylphenyl)acetic acid] | < 1
14 | Cc1cccc(OCc2nn(CC3CCOC3)c3ccc(-c4ccc5ccnc(N)c5c4)cc23)c1CC(=O)O (centres unmarked) [Compound 95b, 2-(2-((5-(1-aminoisoquinolin-7-yl)-1-((tetrahydrofuran-3-yl)methyl)-1H-indazol-3-yl)methoxy)-6-methylphenyl)acetic acid] | < 1
15 | N=C(N)c1cccc(-c2ccc3c(c2)c(COc2ccccc2CC(=O)O)nn3C2CCOC2)c1 (centres unmarked) [Compound 96g, 2-(2-((5-(3-carbamimidoylphenyl)-1-(tetrahydrofuran-3-yl)-1H-indazol-3-yl)methoxy)phenyl)acetic acid] | < 1

The next lines start with the values.

Row | IC50 [µM] | SMILES
16 | < 1 | Nc1nccc2c(-c3ccc4[nH]nc(COc5ccccc5CC(=O)O)c4c3)cccc12 [Compound 97a, 2-(2-((5-(1-aminoisoquinolin-5-yl)-1H-indazol-3-yl)methoxy)phenyl)acetic acid]
17 | < 1 | Nc1nccc2ccc(-c3ccc4[nH]nc(COc5ccccc5CC(=O)O)c4c3)cc12 [Compound 98a, 2-(2-((5-(1-aminoisoquinolin-7-yl)-1H-indazol-3-yl)methoxy)phenyl)acetic acid]
18 | 1 to 10 | CC(C)n1nc(COc2ccccc2CC(=O)O)c2cc(-c3ccc4c(N)nccc4c3)ccc21 [Compound 99c, 2-(2-((5-(1-aminoisoquinolin-6-yl)-1-isopropyl-1H-indazol-3-yl)methoxy)phenyl)acetic acid]
19 | < 1 | CC(C)n1nc(COc2ccccc2CC(=O)O)c2cc(-c3ccc4ccnc(N)c4c3)ccc21 [Compound 100b, 2-(2-((5-(1-aminoisoquinolin-7-yl)-1-isopropyl-1H-indazol-3-yl)methoxy)phenyl)acetic acid]
20 | < 1 | COc1ccc(CC(=O)O)c(OCc2nn(C)c3ccc(-c4cccc(C(=N)N)c4)cc23)c1 [Compound 101b, 2-(2-((5-(3-carbamimidoylphenyl)-1-methyl-1H-indazol-3-yl)methoxy)-4-methoxyphenyl)acetic acid]
21 | 1 to 10 | CC(C)n1nc(COc2ccccc2CC(=O)O)c2cc(-c3ccc4onc(N)c4c3)ccc21 [Compound 102c, 2-(2-((5-(3-aminobenzo[d]isoxazol-5-yl)-1-isopropyl-1H-indazol-3-yl)methoxy)phenyl)acetic acid]
22 | < 1 | Cc1ccc(CC(=O)O)c(OCc2nn(C(C)C)c3ccc(-c4cccc(C(=N)N)c4)cc23)c1 [Compound 103c, 2-(2-((5-(3-carbamimidoylphenyl)-1-isopropyl-1H-indazol-3-yl)methoxy)-4-methylphenyl)acetic acid]
23 | < 1 | Cc1ccc(CC(=O)O)c(OCc2nn(C)c3ccc(-c4cccc(C(=N)N)c4)cc23)c1 [Compound 104d, 2-(2-((5-(3-carbamimidoylphenyl)-1-methyl-1H-indazol-3-yl)methoxy)-4-methylphenyl)acetic acid]
24 | > 10 | CC(C)n1nc(COc2ccccc2CC(=O)O)c2cc(-c3ccc4nc(N)oc4c3)ccc21 [Compound 105c, 2-(2-((5-(2-aminobenzo[d]oxazol-6-yl)-1-isopropyl-1H-indazol-3-yl)methoxy)phenyl)acetic acid]
25 | < 1 | Nc1nccc2c(-c3cc(-c4ccoc4)c4c(c3)c(COc3ccccc3CC(=O)O)nn4C3CCCCO3)cccc12 (centres unmarked) [Compound 106g, 2-(2-((5-(1-aminoisoquinolin-5-yl)-7-(furan-3-yl)-1-(tetrahydro-2H-pyran-2-yl)-1H-indazol-3-yl)methoxy)phenyl)acetic acid]
26 | < 1 | Nc1nccc2c(-c3cc(NCC4CC4)c4c(c3)c(COc3ccccc3CC(=O)O)nn4C3CCCCO3)cccc12 (centres unmarked) [Compound 107d, 2-(2-((5-(1-aminoisoquinolin-5-yl)-7-((cyclopropylmethyl)amino)-1-(tetrahydro-2H-pyran-2-yl)-1H-indazol-3-yl)methoxy)phenyl)acetic acid]
27 | < 1 | N#Cc1cc(-c2cccc3c(N)nccc23)cc2c(COc3ccccc3CC(=O)O)nn(C3CCCCO3)c12 (centres unmarked) [Compound 108c, 2-(2-((5-(1-aminoisoquinolin-5-yl)-7-cyano-1-(tetrahydro-2H-pyran-2-yl)-1H-indazol-3-yl)methoxy)phenyl)acetic acid]
28 | 1 to 10 | Nc1nccc2ccc(-c3ccc4nn(C5CCOC5)c(COc5ccccc5CC(=O)O)c4c3)cc12 (centres unmarked) [Compound 109b, 2-(2-((5-(1-aminoisoquinolin-7-yl)-2-(tetrahydrofuran-3-yl)-2H-indazol-3-yl)methoxy)phenyl)acetic acid]
29 | < 1 | CCC(CC)n1nc(COc2ccccc2CC(=O)O)c2cc(-c3ccc4ccnc(N)c4c3)ccc21 [Compound 110e, 2-(2-((5-(1-aminoisoquinolin-7-yl)-1-(pentan-3-yl)-1H-indazol-3-yl)methoxy)phenyl)acetic acid]
30 | < 1 | COCCn1nc(COc2ccccc2CC(=O)O)c2cc(-c3ccc4ccnc(N)c4c3)ccc21 [Compound 111e, 2-(2-((5-(1-aminoisoquinolin-7-yl)-1-(2-methoxyethyl)-1H-indazol-3-yl)methoxy)phenyl)acetic acid]
31 | < 1 | Nc1nccc2ccc(-c3ccc4c(c3)c(COc3ccccc3CC(=O)O)nn4C3CC4(CCC4)C3)cc12 [Compound 112e, 2-(2-((5-(1-aminoisoquinolin-7-yl)-1-(spiro[3.3]heptan-2-yl)-1H-indazol-3-yl)methoxy)phenyl)acetic acid]
32 | 1 to 10 | Nc1nccc2ccc(-c3ccc4nn([C@H]5CCN(CCO)C5)c(COc5ccccc5CC(=O)O)c4c3)cc12 [Compound 113h, (S)-2-(2-((5-(1-aminoisoquinolin-7-yl)-2-(1-(2-hydroxyethyl)pyrrolidin-3-yl)-2H-indazol-3-yl)methoxy)phenyl)acetic acid]
